One data set deals with T1, human KDR enzyme (Homo sapiens, UniProt P35968).
T1 construct: The cytoplasmic domain of the human KDR enzyme was cloned in the form of a GST fusion; GST; made in house; host or cells: SF21 insect cells (baculovirus, pFastBac)
The experiment in a line: phosphorylation of substrate by the KDR enzyme in vitro, scintillation technique. Format: biochemical. Conditions: read-out: KDR IC 50. Here is the method: The inhibitory effect of the compounds is determined in an assay for phosphorylation of substrate by the KDR enzyme in vitro using a scintillation technique (96-well plate, NEN).
The cytoplasmic domain of the human KDR enzyme was cloned in the form of a GST fusion into the baculovirus expression vector pFastBac. The protein was expressed in SF21 cells and purified to approximately 60% homogeneity.
The kinase activity of KDR is measured in 20 mM MOPS, 10 mM MgCl2, 10 mM MnCl2, 1 mM DTT, 2.5 mM EGTA, 10 mM β-glycerophosphate, pH=7.2, in the presence of 10 mM MgCl2, 100 μM Na3VO4, 1 mM NaF. 10 μl of the compound are added to 70 μl of kinase buffer containing 100 ng of KDR enzyme at 4° C. The reaction is initiated by adding 20 μl of solution containing 2 μg of substrate (SH2-SH3 fragment of PLCγ expressed in the form of a GST fusion protein), 2 μCi γ ^33P[ATP] and 2 μM cold ATP. After incubation at 37° C. for 1 hour, the reaction is stopped by adding 1 volume (100 μl) of 200 mM EDTA. The incubation buffer is removed and the wells are washed three times with 300 μl of PBS. The radioactivity is measured in each well using a Top Count NXT radioactivity counter (Packard).
The background noise is determined by measuring the radioactivity in four different wells containing the radioactive ATP and the substrate alone.
A control for total activity is measured in four different wells containing all the reactants (γ^33P-[ATP], KDR and PLCY substrate) but in the absence of compound.
The inhibition of the KDR activity with the compound of the invention is expressed as percentage inhibition of the control activity determined in the absence of compound.
The compound SU5614 (Calbiochem) (1 μM) is included in each plate as an inhibition control.

Another data set addresses T2, human Tie2 (Homo sapiens, UniProt Q02763).
T2 construct: corresponding to the intracellular domain amino acids 776-1124 was generated by PCR; made in house; host or cells: baculovirus expression vector pFastBacGT
Kind of data set: phosphorylation of PLC by Tie2 (GST-Tie2), FlashPlate. The settings on record: read-out: TIE2 IC 50. Format: biochemical. Here is the method: The human Tie2 coding sequence corresponding to the intracellular domain amino acids 776-1124 was generated by PCR using the cDNA isolated from human placenta as a model. This sequence was introduced into a baculovirus expression vector pFastBacGT in the form of a GST fusion protein.
The inhibitory effect of the molecules is determined in an assay for phosphorylation of PLC by Tie2 in the presence of GST-Tie2 purified to approximately 80% homogeneity. The substrate is made up of the SH2-SH3 fragments of PLC expressed in the form of a GST fusion protein.
The kinase activity of Tie2 is measured in a 20 mM MOPS buffer, pH 7.2, containing 10 mM MgCl2, 10 mM MnCl2, 1 mM DTT and 10 mM of glycerophosphate. A reaction mixture made up to 70 μl of kinase buffer containing 100 ng of GST-Tie2 enzyme is deposited into each well of a 96-well FlashPlate kept on ice. 10 μl of the test molecule diluted in DMSO at a maximum concentration of 10% are then added. For a given concentration, each measurement is determined in quadruplicate. The reaction is initiated by adding 20 μl of solution containing 2 μg of GST-PLC, 2 μM of cold ATP and 1 μCi of ^33P [ATP]. After incubation at 37° C. for 1 hour, the reaction is stopped by adding 1 volume (100 μl) of 200 mM EDTA. After the incubation buffer has been removed, the wells are washed three times with 300 μl of PBS. The radioactivity is measured on a Wallac MicroBeta 1450.
The inhibition of the Tie2 activity is calculated and expressed as percentage inhibition with respect to the control activity determined in the absence of compound.

For the next data set, the target named is FAK (Homo sapiens, UniProt Q05397). The experiment in a line: FAK inhibition. Format: biochemical.
FAK, sequence (Q05397 whole entry, species assumed): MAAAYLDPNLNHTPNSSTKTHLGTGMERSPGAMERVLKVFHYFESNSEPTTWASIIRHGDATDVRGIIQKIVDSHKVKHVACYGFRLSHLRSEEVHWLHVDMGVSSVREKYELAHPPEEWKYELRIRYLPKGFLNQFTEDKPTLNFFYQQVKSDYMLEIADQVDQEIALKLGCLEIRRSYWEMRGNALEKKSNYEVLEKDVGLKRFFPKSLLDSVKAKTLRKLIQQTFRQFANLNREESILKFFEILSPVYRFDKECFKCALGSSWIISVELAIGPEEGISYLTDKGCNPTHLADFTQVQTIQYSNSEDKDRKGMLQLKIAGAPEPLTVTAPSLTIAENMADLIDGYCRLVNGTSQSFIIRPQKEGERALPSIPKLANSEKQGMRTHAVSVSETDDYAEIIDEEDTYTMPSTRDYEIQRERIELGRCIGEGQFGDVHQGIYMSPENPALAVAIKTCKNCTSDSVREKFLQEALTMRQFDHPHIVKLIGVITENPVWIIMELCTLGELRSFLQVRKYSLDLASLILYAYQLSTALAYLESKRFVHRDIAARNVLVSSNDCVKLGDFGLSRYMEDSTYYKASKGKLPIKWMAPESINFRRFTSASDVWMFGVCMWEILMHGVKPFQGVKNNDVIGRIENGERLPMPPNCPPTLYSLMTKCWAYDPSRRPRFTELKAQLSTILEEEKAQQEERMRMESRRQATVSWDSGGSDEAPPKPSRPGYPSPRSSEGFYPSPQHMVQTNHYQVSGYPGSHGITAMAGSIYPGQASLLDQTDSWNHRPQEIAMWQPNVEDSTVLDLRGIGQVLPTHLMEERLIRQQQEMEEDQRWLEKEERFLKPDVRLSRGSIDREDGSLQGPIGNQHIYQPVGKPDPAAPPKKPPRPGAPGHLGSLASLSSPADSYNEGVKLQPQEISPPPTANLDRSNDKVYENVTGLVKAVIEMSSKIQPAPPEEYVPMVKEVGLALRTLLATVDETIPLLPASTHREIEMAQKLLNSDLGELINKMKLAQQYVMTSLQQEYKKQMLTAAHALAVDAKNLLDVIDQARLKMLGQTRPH

This note sets out measurements from patent US7566736B2, “Substituted indoles, compositions containing them, method for the production thereof and their use” (Aventis Pharma S.A., priority 2004, dated 2009).

Molecules are shown by their SMILES.

T2 sequence (Q02763 776-1124): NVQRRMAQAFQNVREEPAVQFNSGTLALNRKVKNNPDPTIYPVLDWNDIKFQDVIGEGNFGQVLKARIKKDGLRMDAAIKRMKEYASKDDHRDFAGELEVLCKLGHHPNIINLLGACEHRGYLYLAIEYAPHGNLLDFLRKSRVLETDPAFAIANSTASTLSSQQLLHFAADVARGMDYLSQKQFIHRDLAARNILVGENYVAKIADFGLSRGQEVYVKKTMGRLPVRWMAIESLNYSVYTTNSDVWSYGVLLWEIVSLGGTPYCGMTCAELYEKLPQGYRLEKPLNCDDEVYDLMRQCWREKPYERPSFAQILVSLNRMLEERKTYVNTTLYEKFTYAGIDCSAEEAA
T1 sequence (P35968 786-1356 limits assumed): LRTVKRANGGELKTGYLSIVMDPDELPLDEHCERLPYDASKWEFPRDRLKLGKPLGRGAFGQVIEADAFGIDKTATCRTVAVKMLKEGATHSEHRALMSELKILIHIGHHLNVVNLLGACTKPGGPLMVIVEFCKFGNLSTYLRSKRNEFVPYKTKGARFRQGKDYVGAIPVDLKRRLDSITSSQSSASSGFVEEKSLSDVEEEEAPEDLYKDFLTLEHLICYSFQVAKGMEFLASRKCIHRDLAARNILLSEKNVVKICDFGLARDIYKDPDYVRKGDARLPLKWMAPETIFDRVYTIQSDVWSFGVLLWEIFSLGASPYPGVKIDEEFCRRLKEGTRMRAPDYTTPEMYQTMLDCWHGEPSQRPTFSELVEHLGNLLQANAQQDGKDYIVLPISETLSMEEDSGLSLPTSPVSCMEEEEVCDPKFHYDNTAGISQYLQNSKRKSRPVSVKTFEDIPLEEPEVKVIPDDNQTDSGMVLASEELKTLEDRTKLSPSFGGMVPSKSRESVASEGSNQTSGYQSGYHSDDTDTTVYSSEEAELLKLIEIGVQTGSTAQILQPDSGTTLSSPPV

Turning to `CC(C)(C)c1cc(NC(=O)Nc2ccc(-c3c(C(N)=O)[nH]c4ccccc34)cc2)no1` [Example 10, 3-{4-[3-(5-tert-butylisoxazol-3-yl)ureido]-phenyl}-1H-indole-2-carboxamide], the melting point lay in the range of 176 to 178 °C. Also, the IC50 on human KDR enzyme came out at 37 nM. At human Tie2, the IC50 amounted to 3 nM. At FAK, the IC50 was found to be 303 nM.
`Cc1cc(C)cc(NC(=O)Nc2ccc(-c3c(C(N)=O)[nH]c4ccccc34)cc2)c1` [Example 6, 3-[4-(3,5-Dimethylphenylureido)phenyl]-1H-indole-2-carboxamide] came in with a melting point of 168 to 170 °C. The IC50 at human KDR enzyme worked out at 47 nM. For the same compound, the IC50 on human Tie2 was determined as 16 nM.
